According to patent US4912199A, “Oligopeptide anticancer and antiviral agents” (The Governors of the University of Alberta, priority 1987, dated 1990):
≈ marks a conversion by molar mass, not a printed value. Read-outs that look alike come from different tables or passages of the source.

Columns and labels:
Vaccinia = assay type: cell-based, vaccinia virus; settings: for minimum inhibitory concentration against vaccinia virus: text of Examples 3(A) and 3(B), hydrochloride
P388 murine leukemia = assay: Antileukemic properties, ID50 vs P388 leukemia; assay type: cell-based; settings: 25,000 cells per well; 72 hours incubation at 37° C.
Procedure: The compounds of the following Table 3 were prepared in accordance with processes of this invention.

L1210 murine Leukemia = assay: Anticancer properties, 50% cell kill (ID50); assay type: cell-based
Herpes-2 = assay: Antiviral test, minimum inhibitory concentration in primary rabbit kidney cell cultures; assay type: cell-based; settings: 50% kill of the viruses in primary rabbit kidney cell cultures
[1] = tested on: FM3A murine mammary tumor; assay: Anticancer properties, 50% cell kill (ID50); assay type: cell-based
RAJI human B lymphoblast = assay: Anticancer properties, 50% cell kill (ID50); assay type: cell-based
Text: RAJI human B lymphoblast
FIG. 1 relates to such acitivity for the cell line MOLT/4F, human T lymphoblast. FIG. 2 related to the tumor cell lines of Raji, human B lymphoblast; all values being expressed in ID50 values in arbitrary units. […] The general formula for the compounds of this invention as tested in FIGS. 1 and 2 are of formula I, wherein A is represented by: [drawing 14] m is 1; n is 1 and Het is pyrrole, R is represented by the formula COk --(CH2)l --CO where l is equal to 0, 1, 2, 3, 4, 5, 6, 7 or 8 and k is equal to 0 or 1.

[2] = tested on: primary rabbit kidney cell cultures; assay: Minimal cytotoxic concentration in the antiviral test
Procedure: The antiviral properties of the compounds listed in Table 1 were tested to determine the minimum inhibitory concentration to achieve a 50% kill of the viruses in primary rabbit kidney cell cultures.

Herpes simplex-1 = assay: Antiviral test, minimum inhibitory concentration in primary rabbit kidney cell cultures; assay type: cell-based; settings: 50% kill of the viruses in primary rabbit kidney cell cultures
[3] = tested on: MOLT/4F human T lymphoblast; assay: Anticancer properties, 50% cell kill (ID50); assay type: cell-based
[4] = 50% kill of the viruses in primary rabbit kidney cell cultures

SMILES | ID50 vs P388 leukemia (P388 murine leukemia) [µg/mL] | Minimum Inhibitory Conc. L1210 (ID50) (L1210 murine Leukemia) [µg/mL] | Minimum Inhibitory Conc. Herpes-2 (Herpes-2) [µg/mL] | Minimum Inhibitory Conc. FM3A (ID50) [1] [µg/mL] | Minimum Inhibitory Conc. RAJI (ID50) (RAJI human B lymphoblast) [µg/mL] | Minimum Inhibitory Conc. Herpes simplex-1 (Herpes simplex-1) [µg/mL] | Minimal Cytotoxic Conc. [2] [μg/m] | Minimum Inhibitory Conc. Vaccinia (Vaccinia; [4]) [µg/mL] | further results
Cl.Cn1cc(NC(=O)c2cc(NC(=O)C[N+](C)(C)C)cn2C)cc1C(=O)NCCC(=N)N.[Cl-] [3(B), 1-Methyl-4-(1-methyl-4-trimethylammonium-acetamidopyrrole-2-carboxamido)pyrrole-2-carboxamidopropionamidine chloride hydrochloride] | – | – | – | – | – | – | – | – | minimum inhibitory concentration against vaccinia virus (Vaccinia): 300 µg/mL
Cn1cc(NC(=O)c2cc(NC(=O)c3cc(NC=O)cn3C)cn2C)cc1C(=O)NCCC(=N)N [Distamycin, distamycin, reference compound] | 20 (≈ 41.5 µM) | 27.1 ± 4.7 | 70 | 30.6 ± 2.4 | 23.7 ± 3.69 | 70 | – | – | Minimal Cytotoxic Conc. ([2]; primary rabbit kidney cell cultures): 200 μg/m; Minimum Inhibitory Conc. Vaccinia (Vaccinia): 0.2 µg/mL
Cl.Cn1cc(NC(=O)c2cc(NC(=O)C[N+](C)(C)C)cn2C)cc1C(=O)NCCC(=N)N.[Cl-] [Example 3(A), 1-Methyl-4-(1-methyl-4-trimethylammonium-acetamidopyrrole-2-carboxamido)pyrrole-2-carboxamidopropionamidine chloride hydrochloride] | – | – | – | – | – | – | – | – | minimum inhibitory concentration against vaccinia virus (Vaccinia): 20 µg/mL
Cl.Cl.Cn1cc(NC(=O)c2cc(NC(=O)CCCCCCC(=O)Nc3cc(C(=O)Nc4cc(C(=O)NCCC(=N)N)n(C)c4)n(C)c3)cn2C)cc1C(=O)NCCC(=N)N [m=1 n=1 R = CO(CH2)6 CO] | 0.70 | – | 10 | – | – | 10 | ≥ 10 | 0.2 | –
Cl.Cl.Cn1cc(NC(=O)c2cc(NC(=O)CCCCCCCC(=O)Nc3cc(C(=O)Nc4cc(C(=O)NCCC(=N)N)n(C)c4)n(C)c3)cn2C)cc1C(=O)NCCC(=N)N [m=1 n=1 R = CO(CH2)7 CO] | 0.75 | – | 40 | – | – | 40 | ≥ 100 | 0.2 | –
Cl.Cl.Cn1cc(NC(=O)c2cc(NC(=O)CC(=O)Nc3cc(C(=O)Nc4cc(C(=O)NCCC(=N)N)n(C)c4)n(C)c3)cn2C)cc1C(=O)NCCC(=N)N [m=1 n=1 R = COCH2CO] | 0.91 | 28.5 ± 9.7 | – | 5.87 ± 2.23 | 3.39 ± 0.69 | – | – | – | Minimum Inhibitory Conc. MOLT/4F (ID50) [3]: 2.85 ± 0.6 µg/mL
Cl.Cl.Cn1cc(NC(=O)c2cc(NC(=O)/C=C/C(=O)Nc3cc(C(=O)Nc4cc(C(=O)NCCC(=N)N)n(C)c4)n(C)c3)cn2C)cc1C(=O)NCCC(=N)N [m=1 n=1 R = COCH CHCO (trans)] | – | – | 10 | – | – | – | ≥ 40 | 2 | –
Cl.Cl.Cn1cc(NC(=O)c2cc(NC(=O)CCCCCCCCC(=O)Nc3cc(C(=O)Nc4cc(C(=O)NCCC(=N)N)n(C)c4)n(C)c3)cn2C)cc1C(=O)NCCC(=N)N [m=1 n=1 R = CO[CH2]8CO] | 0.98 | 4.21 ± 1.52 | – | 22.1 ± 11.1 | 3.34 ± 0.44 | – | – | – | Minimum Inhibitory Conc. MOLT/4F (ID50) [3]: 2.97 ± 0.4 µg/mL
Cl.Cl.Cn1cc(NC(=O)c2cc(NC(=O)Nc3cc(C(=O)Nc4cc(C(=O)NCCC(=N)N)n(C)c4)n(C)c3)cn2C)cc1C(=O)NCCC(=N)N [m=1 n=1 l=0 k=0] | 8.0 | – | – | – | – | – | – | – | –
Cl.Cl.Cn1cc(NC(=O)c2cc(NC(=O)CCCC(=O)Nc3cc(C(=O)Nc4cc(C(=O)NCCC(=N)N)n(C)c4)n(C)c3)cn2C)cc1C(=O)NCCC(=N)N [m=1 n=1 l=3 k=1] | 6.4 | – | – | – | – | – | – | – | –
Cl.Cl.Cn1cc(NC(=O)c2cc(NC(=O)CCCCC(=O)Nc3cc(C(=O)Nc4cc(C(=O)NCCC(=N)N)n(C)c4)n(C)c3)cn2C)cc1C(=O)NCCC(=N)N [m=1 n=1 l=4 k=1] | 1.05 | – | – | – | – | – | – | – | –
Cl.Cl.Cn1cc(NC(=O)c2cc(NC(=O)CCCCCC(=O)Nc3cc(C(=O)Nc4cc(C(=O)NCCC(=N)N)n(C)c4)n(C)c3)cn2C)cc1C(=O)NCCC(=N)N [m=1 n=1 l=5 k=1] | 4.4 | – | – | – | – | – | – | – | –
Cl.Cl.Cn1cc(NC(=O)c2cc(NC(=O)c3cc(NC(=O)CCC(=O)Nc4cc(C(=O)Nc5cc(C(=O)Nc6cc(C(=O)NCCC(=N)N)n(C)c6)n(C)c5)n(C)c4)cn3C)cn2C)cc1C(=O)NCCC(=N)N [m=1 n=2 R = CO(CH2)2 CO] | – | > 100 | 4 | 4.29 ± 1.12 | 4.14 ± 8.4 | 4 | ≥ 40 | 4 | Minimum Inhibitory Conc. MOLT/4F (ID50) [3]: 100 µg/mL
